Results as given in ChEMBL document CHEMBL1201862, “PubChem BioAssay data set” (2004).
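In this assay, cells in 96-well plates receive the compound at five concentrations for 48 hours. Endpoints are linearly interpolated between the surrounding concentrations. GI50 is the concentration that inhibits growth by half.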 The source made the active and inactive calls. No stated cut-off is given here; in the data, active = GI50 up to about 1.1 µM and inactive = higher.

What was measured:
Assay in all cases: NCI-60 cell line screen, 48 h
DLD-1 = tested on: DLD-1
DMS-273 = tested on: DMS-273
DMS-114 = tested on: DMS-114
M19-MEL = tested on: M19-MEL
HOP-18 = tested on: HOP-18
XF498 = tested on: XF498
SNB-78 = tested on: SNB-78
LXFL 529 = tested on: LXFL 529
RXF 631 = tested on: RXF 631

Measured: GI50

COC12CCC(=O)C=C1c1ccccc1N2C(C)=O (configuration not stated)
inactive: DLD-1 > 100 µM | DMS-273 > 100 µM | DMS-114 > 100 µM | M19-MEL > 100 µM | HOP-18 > 100 µM | XF498 > 100 µM | SNB-78 > 100 µM | LXFL 529 > 100 µM

O=C(Nc1ccccc1-c1nn(CO)c(=S)n(CO)c1=O)C(F)(F)F
inactive: DLD-1 95.7 µM | DMS-273 > 100 µM | DMS-114 > 100 µM | XF498 > 100 µM | SNB-78 > 100 µM | LXFL 529 > 100 µM

COc1cc(CC(C(=O)O)C(=O)O)c(OC)cc1CC(C(=O)O)C(=O)O
inactive: DLD-1 > 100 µM | DMS-273 > 100 µM | DMS-114 > 100 µM | M19-MEL > 100 µM | XF498 > 100 µM | SNB-78 > 100 µM | LXFL 529 > 100 µM

COc1c2c(cc3nc4ccccc4nc13)CCC(C(C)(C)O)C2 (configuration not stated)
inactive: DLD-1 > 100 µM | DMS-273 63.4 µM | M19-MEL > 100 µM | HOP-18 86.5 µM | XF498 > 100 µM | SNB-78 > 100 µM | LXFL 529 > 100 µM

Cc1nc2c(ccc3ncccc32)[nH]1
inactive: DLD-1 > 100 µM | DMS-273 > 100 µM | DMS-114 > 100 µM | M19-MEL > 100 µM | HOP-18 > 100 µM | LXFL 529 > 100 µM

Cc1nn(C)cc1P(=S)(c1ccccc1)c1ccccc1
inactive: DLD-1 51.4 µM | DMS-273 31.6 µM | DMS-114 30.9 µM | M19-MEL 59.3 µM | HOP-18 > 100 µM | XF498 > 100 µM | SNB-78 51.2 µM | LXFL 529 51.3 µM

O=C1c2c(nc3ccccc3c2-c2ccccc2)CN1Nc1ccccc1
inactive: DLD-1 > 100 µM | DMS-114 > 100 µM | M19-MEL > 100 µM | XF498 > 100 µM | LXFL 529 > 100 µM

c1ccc2c(c1)C1CCCCCC21N1CCOCC1 (configuration not stated)
inactive: DLD-1 84.5 µM | DMS-273 67.1 µM | DMS-114 38.8 µM | M19-MEL > 100 µM | SNB-78 > 100 µM | LXFL 529 50 µM

CC(C)N1C(C)[C@@H](c2ccccc2)O[P@@]1(=O)CC1=CCCCC1 (some centres not stated)
inactive: DLD-1 > 100 µM | DMS-114 51.4 µM | M19-MEL > 100 µM | HOP-18 > 100 µM | XF498 > 100 µM | LXFL 529 > 100 µM

Cn1c(=O)nc2n(-c3cc(C(F)(F)F)cc(C(F)(F)F)c3)c3ccccc3nc-2c1=O
inactive: DMS-273 45.7 µM | DMS-114 26.3 µM | M19-MEL 13.8 µM | XF498 > 100 µM | SNB-78 > 100 µM

O=C1C2C3C=CC(C2C(=O)N1CN1CCOCC1)C1C2C(=O)N(CN4CCOCC4)C(=O)C2C31 (configuration not stated)
inactive: DLD-1 40.4 µM | DMS-273 18.2 µM | DMS-114 16.2 µM | RXF 631 11.5 µM | M19-MEL 22.9 µM | HOP-18 22.1 µM | SNB-78 32.9 µM | LXFL 529 19.6 µM
